US20250332173A1, “COMPOUNDS AND METHODS FOR MODULATING NUCLEIC ACID SPLICING” (REMIX THERAPEUTICS INC., priority 2021, published 2025)

Assays:
[1] = system: HTT; assay: HiBiT protein abundance assay, HTT HiBiT K562 cell line; format: cell-based, human; conditions: HiBiT K562 cell line, 24 hours, top dose 10 μM; read-out: Effect on protein abundance, HTT (IC50 category)
Summary of the method: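 K562 knock-in lines with endogenous HiBiT-tagged target, 10,000 cells/well in IMDM + FBS, treated 24 h at 37° C with 10-point 3-fold dilutions (top 10 μM final; DMSO ≤0.25%). Lytic Nano-Glo HiBiT luminescence normalized to untagged K562 baseline and DMSO controls; IC50 = concentration giving 50% abundance via four-parameter fit.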

[2] = system: Target C; assay: HiBiT protein abundance assay, Target C (Promega Nano-Glo HiBiT Lytic Detection System, knock-in K562 cell line); format: cell-based, human; conditions: Homo sapiens, K562, 24 h, HiBiT K562 cell line, 24 hours, top dose 10 μM; read-out: Effect on protein abundance, Target C (IC50 category)
Summary of the method: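 Knock-in K562 cells carrying HiBiT-tagged Target C, 10,000 per well, treated 24 h at 37 °C with 10-point threefold dilutions (top 10 μM final, ≤0.25% DMSO). Lytic HiBiT luminescence read; response normalised to unmodified K562 and DMSO controls, four-parameter fit interpolated at 50% for IC50.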

| IC50 [1] [µM] | IC50 [2] [µM] | SMILES |
| --- | --- | --- |
| < 0.1 | < 0.1 | Cn1cc2cc(-c3cc(F)c4c(=O)n(C5CCNCC5)ccc4c3)cc(C#N)c2n1 [Compound 394, 5-(8-fluoro-1-oxo-2-(piperidin-4-yl)-1,2-dihydroisoquinolin-6-yl)-2-methyl-2H-indazole-7-carbonitrile] |
| 0.1 to 1 | 0.1 to 1 | COc1cc(-c2cc(C)c3nc(C)cn3n2)cc2ccn(C3CCNCC3)c(=O)c12 [Compound 399, 6-{2,8-dimethylimidazo[1,2-b]pyridazin-6-yl}-8-methoxy-2-(piperidin-4-yl)isoquinolin-1-one] |
| < 0.1 | < 0.1 | Cc1cn2nc(-c3cc(F)c4c(=O)n(C5CCN(C)CC5)ccc4c3)cc(C)c2n1 [Compound 400, 6-(2,8-dimethylimidazo[1,2-b]pyridazin-6-yl)-8-fluoro-2-(1-methylpiperidin-4-yl)isoquinolin-1(2H)-one] |
| < 0.1 | 0.1 to 1 | CCN1CCC(n2ccc3cc(-c4cc(C)c5nc(C)cn5n4)ccc3c2=O)CC1 [Compound 402, 6-{2,8-dimethylimidazo[1,2-b]pyridazin-6-yl}-2-(1-ethylpiperidin-4-yl)isoquinolin-1-one] |
| 1 to 10 | 1 to 10 | Cc1cn2cc(-c3ccc4c(=O)n([C@H]5CCCNC5)ccc4c3)cc(F)c2n1 [Compound 404, 6-{8-fluoro-2-methylimidazo[1,2-a]pyridin-6-yl}-2-[(3S)-piperidin-3-yl]isoquinolin-1-one] |
| > 10 | > 10 | Cc1cn2cc(-c3cc(S(C)(=O)=O)c4c(=O)n(C5CCNCC5)ccc4c3)cc(F)c2n1 [Compound 409, 6-(8-fluoro-2-methylimidazo[1,2-a]pyridin-6-yl)-8-(methylsulfonyl)-2-(piperidin-4-yl)isoquinolin-1(2H)-one] |
| < 0.1 | < 0.1 | Cn1cc2cc(-c3cc(F)c4c(=O)n(C5CCNC6(CC6)C5)ccc4c3)cc(F)c2n1 (centres unmarked) [Compound 412] |
| < 0.1 | < 0.1 | Cc1cn2cc(-c3cc(F)c4c(=O)n(C5CCNC6(CC6)C5)ccc4c3)cc(Cl)c2n1 (centres unmarked) [Compound 413, 2-{4-azaspiro[2.5]octan-7-yl}-6-{8-chloro-2-methylimidazo[1,2-a]pyridin-6-yl}-8-fluoroisoquinolin-1-one] |
| 1 to 10 | > 10 | Cn1cc2cc(-c3cc(F)c4c(=O)n(C5CCNC6(CC6)C5)ccc4c3)c(O)cc2n1 (centres unmarked) [Compound 414, 2-{4-azaspiro[2.5]octan-7-yl}-8-fluoro-6-(6-hydroxy-2-methylindazol-5-yl)isoquinolin-1-one] |
| < 0.1 | < 0.1 | Cc1cc(-c2cc(F)c3c(=O)n(C4CCNC5(CC5)C4)ccc3c2)cc2cn(C)nc12 (centres unmarked) [Compound 415, 2-{4-azaspiro[2.5]octan-7-yl}-6-(2,7-dimethylindazol-5-yl)-8-fluoroisoquinolin-1-one] |
| < 0.1 | < 0.1 | Cc1cn2cc(-c3cc(F)c4c(=O)n(C5CCNC6(CC6)C5)ccc4c3)cc(C)c2n1 (centres unmarked) [Compound 416, 2-{4-azaspiro[2.5]octan-7-yl}-6-{2,8-dimethylimidazo[1,2-a]pyridin-6-yl}-8-fluoroisoquinolin-1-one] |
| < 0.1 | < 0.1 | Cc1nc2c(F)cc(-c3cc(F)c4c(=O)n(C5CCNC6(CC6)C5)ccc4c3)cc2o1 (centres unmarked) [Compound 417, 2-{4-azaspiro[2.5]octan-7-yl}-8-fluoro-6-(4-fluoro-2-methyl-1,3-benzoxazol-6-yl)isoquinolin-1-one] |
| < 0.1 | < 0.1 | Cc1nc2c(C)cc(-c3cc(F)c4c(=O)n(C5CCNC6(CC6)C5)ccc4c3)cc2o1 (centres unmarked) [Compound 418, 2-{4-azaspiro[2.5]octan-7-yl}-6-(2,4-dimethyl-1,3-benzoxazol-6-yl)-8-fluoroisoquinolin-1-one] |
| > 10 | > 10 | Cc1c(O)c(-c2cc(F)c3c(=O)n(C4CCNC5(CC5)C4)ccc3c2)cc2cn(C)nc12 (centres unmarked) [Compound 419, 2-{4-azaspiro[2.5]octan-7-yl}-8-fluoro-6-(6-hydroxy-2,7-dimethylindazol-5-yl)isoquinolin-1-one] |
| 1 to 10 | 1 to 10 | Cn1cc2cc(-c3cc(F)c4c(=O)n(C5CCNC6(CC6)C5)ccc4c3)c(O)c(F)c2n1 (centres unmarked) [Compound 420, 2-{4-azaspiro[2.5]octan-7-yl}-8-fluoro-6-(7-fluoro-6-hydroxy-2-methylindazol-5-yl)isoquinolin-1-one] |
| > 10 | > 10 | Cc1cn2cc(-c3cc(F)c4c(=O)n(C5CCNC6(CC6)C5)ccc4c3)c(O)c(C)c2n1 (centres unmarked) [Compound 421, 2-{4-azaspiro[2.5]octan-7-yl}-8-fluoro-6-{7-hydroxy-2,8-dimethylimidazo[1,2-a]pyridin-6-yl}isoquinolin-1-one] |
| < 0.1 | < 0.1 | Cc1cn2nc(-c3cc(C)c4c(=O)n(C5CCNC6(CC6)C5)ncc4c3)cc(C)c2n1 (centres unmarked) [Compound 423, 6-(2,8-dimethylimidazo[1,2-b]pyridazin-6-yl)-8-methyl-2-(4-azaspiro[2.5]octan-7-yl)phthalazin-1(2H)-one] |

| IC50 [1] [µM] | IC50 [2] [µM] | SMILES |
| --- | --- | --- |
| 0.1 to 1 | 1 to 10 | Cc1cn2cc(-c3cc(F)c4c(=O)n(C5CCNC6(CC6)C5)ccc4c3)ncc2n1 (centres unmarked) [Compound 428, 8-fluoro-6-(2-methylimidazo[1,2-a]pyrazin-6-yl)-2-(4-azaspiro[2.5]octan-7-yl)isoquinolin-1(2H)-one] |
| > 10 | 0.1 to 1 | Cc1cc(-c2cc(F)c3c(=O)n(C4CCNC5(CC5)C4)ccc3c2)cc2c1nc(C)n2C (centres unmarked) [Compound 429] |
| > 10 | > 10 | Cc1nc2c(F)cc(-c3cc(F)c4c(=O)n(C5CCNC6(CC6)C5)ccc4c3)cc2n1C (centres unmarked) [Compound 430, 8-fluoro-6-(4-fluoro-1,2-dimethyl-1H-benzo[d]imidazol-6-yl)-2-(4-azaspiro[2.5]octan-7-yl)isoquinolin-1(2H)-one] |
| < 0.1 | < 0.1 | Cc1cc(-c2cc(F)c3c(=O)n(C4CCNC5(CC5)C4)ccc3c2)nc2cn(C)nc12 (centres unmarked) [Compound 431] |
| 1 to 10 | 1 to 10 | Cc1cn2nc(-c3cc(O)c4c(=O)n(C5CCNC5)ccc4c3)cc(C)c2n1 (centres unmarked) [Compound 432, 6-{2,8-dimethylimidazo[1,2-b]pyridazin-6-yl}-8-hydroxy-2-(pyrrolidin-3-yl)isoquinolin-1-one] |
| > 10 | > 10 | Cc1cn2cc(-c3cc(O)c4c(=O)n(C5CCNC5)ccc4c3)cc(C#N)c2n1 (centres unmarked) [Compound 433, 6-(8-hydroxy-1-oxo-2-(pyrrolidin-3-yl)-1,2-dihydroisoquinolin-6-yl)-2-methylimidazo[1,2-a]pyridine-8-carbonitrile] |
| > 10 | > 10 | Cc1cn2cc(-c3cc(F)c4c(=O)n(C5CCNC5)ccc4c3)cc(C#N)c2n1 (centres unmarked) [Compound 434, 6-[8-fluoro-1-oxo-2-(pyrrolidin-3-yl)isoquinolin-6-yl]-2-methylimidazo[1,2-a]pyridine-8-carbonitrile] |
| 0.1 to 1 | 0.1 to 1 | Cc1cn2cc(-c3ccc4c(=O)n(C5CCNCC5)cc(C)c4c3)cc(F)c2n1 [Compound 440, 6-{8-fluoro-2-methylimidazo[1,2-a]pyridin-6-yl}-4-methyl-2-(piperidin-4-yl)isoquinolin-1-one] |
| 1 to 10 | > 10 | Cc1cn2cc(-c3ccc4c(=O)n(C5CCNC5)cc(C)c4c3)cc(F)c2n1 (centres unmarked) [Compound 441, 6-{8-fluoro-2-methylimidazo[1,2-a]pyridin-6-yl}-4-methyl-2-(pyrrolidin-3-yl)isoquinolin-1-one] |
| > 10 | > 10 | Cc1cn2cc(-c3ccc4c(=O)n(C5CCNC5)cc(C)c4c3)cc(C#N)c2n1 (centres unmarked) [Compound 442, 2-methyl-6-[4-methyl-1-oxo-2-(pyrrolidin-3-yl)isoquinolin-6-yl]imidazo[1,2-a]pyridine-8-carbonitrile] |
| < 0.1 | < 0.1 | Cc1cn2nc(-c3ccc4c(=O)n([C@H]5CCNC6(CC6)C5)ccc4c3)cc(C)c2n1 [Compound 445] |
| < 0.1 | < 0.1 | Cc1cn2nc(-c3cc(F)c4c(=O)n([C@@H]5CCNC6(CC6)C5)ncc4c3)cc(C)c2n1 [Compound 446] |
| < 0.1 | < 0.1 | Cc1cn2nc(-c3cc(F)c4c(=O)n([C@H]5CCNC6(CC6)C5)ncc4c3)cc(C)c2n1 [Compound 447] |
| < 0.1 | < 0.1 | Cc1cn2nc(-c3cc4ccn(C5CCNCC5)c(=O)c4cc3O)cc(C)c2n1 [Compound 448, 6-{2,8-dimethylimidazo[1,2-b]pyridazin-6-yl}-7-hydroxy-2-(piperidin-4-yl)isoquinolin-1-one] |
| > 10 | > 10 | COc1cc2c(=O)n(C3CCNCC3)ccc2cc1-c1cc(C)c2nc(C)cn2n1 [Compound 449, 6-{2,8-dimethylimidazo[1,2-b]pyridazin-6-yl}-7-methoxy-2-(piperidin-4-yl)isoquinolin-1-one] |
| > 10 | > 10 | Cc1cn2cc(-c3ccc4c(=O)n([C@@H]5CCNC5)cc(C)c4c3)cc(F)c2n1 [Compound 452, (R)-6-(8-fluoro-2-methylimidazo[1,2-a]pyridin-6-yl)-4-methyl-2-(pyrrolidin-3-yl)isoquinolin-1(2H)-one] |
| > 10 | > 10 | Cc1cn2c(n1)CCC(c1ccc3c(=O)n(C4CCNCC4)ccc3c1)C2 (centres unmarked) [Compound 453, 6-{2-methyl-5H,6H,7H,8H-imidazo[1,2-a]pyridin-6-yl}-2-(piperidin-4-yl)isoquinolin-1-one] |
